T1: ENT3 (equilibrative nucleoside transporter 3), ENT3-AA construct (Homo sapiens, UniProt Q9BZD2, L31A/L32A)
T1 construct: gene SLC29A3; ENT3-AA: full-length ENT3 redirected to the plasma membrane, dileucine L31L32 replaced with A31A32
T1 sequence (Q9BZD2 1-475 L31A/L32A): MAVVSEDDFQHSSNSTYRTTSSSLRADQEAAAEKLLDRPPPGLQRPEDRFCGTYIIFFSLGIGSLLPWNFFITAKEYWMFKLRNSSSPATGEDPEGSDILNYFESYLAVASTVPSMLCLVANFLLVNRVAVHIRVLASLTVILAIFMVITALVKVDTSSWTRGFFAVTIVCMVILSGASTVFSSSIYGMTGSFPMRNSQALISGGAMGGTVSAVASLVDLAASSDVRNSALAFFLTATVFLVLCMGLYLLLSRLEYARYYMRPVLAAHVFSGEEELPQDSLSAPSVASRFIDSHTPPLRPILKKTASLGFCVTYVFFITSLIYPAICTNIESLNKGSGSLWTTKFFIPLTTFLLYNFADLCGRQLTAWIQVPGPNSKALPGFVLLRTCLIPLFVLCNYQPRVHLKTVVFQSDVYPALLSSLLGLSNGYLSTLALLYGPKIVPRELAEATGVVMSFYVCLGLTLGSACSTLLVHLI

B1: ENT3 (equilibrative nucleoside transporter 3), ENT3-AA construct (Homo sapiens; L31A/L32A) (protein)
chain: T1 sequence (Q9BZD2 1-475 L31A/L32A)
notes: ENT3-AA: full-length ENT3 redirected to the plasma membrane, dileucine L31L32 replaced with A31A32

Legend:
[1] = target: T1, ENT3 (equilibrative nucleoside transporter 3), ENT3-AA construct; experiment: inhibition of […]urate ([…]) uptake in HEK293 cells transiently expressing ENT3-AA, pH […]; type: cell-based
[2] = substrate: O=c1[nH]c(=O)c2[nH]c(=O)[nH]c2[nH]1; experiment: cells, lysate or membranes; type: cell-based, Homo sapiens; conditions: proton-coupled transport

| Molecule | IC50 [1] [µM] | Km [2] [µM] |
| --- | --- | --- |
| O=[N+]([O-])c1ccc(CSc2ncnc3c2ncn3C2OC(CO)C(O)C2O)cc1 (stereo not drawn) [nitrobenzylthioinosine] | 21.7 |  |
| OCCN(CCO)c1nc(N2CCCCC2)c2nc(N(CCO)CCO)nc(N3CCCCC3)c2n1 [dipyridamole] | 7.71 |  |
| B1 |  | 1150 |

Reference: publication PMC12752747, “ENT3: A lysosomal urate transporter regulating urate disposition and macrophage inflammation” (iScience, 2025)
